Earlier results in paper PMC13366575, “Structure−Activity Relationships among Inhibitors of Acinetobacter baumannii and Klebsiella pneumoniae 1-Deoxy-D-xylulose 5-Phosphate Reductoisomerase (DXR/IspC) − A Promising Target for Antibiotic Development” (ACS Infectious Diseases, 2026).

Target: KpIspC (Klebsiella pneumoniae, UniProt A6T4X5)
Sequence (A6T4X5 entry or part of it): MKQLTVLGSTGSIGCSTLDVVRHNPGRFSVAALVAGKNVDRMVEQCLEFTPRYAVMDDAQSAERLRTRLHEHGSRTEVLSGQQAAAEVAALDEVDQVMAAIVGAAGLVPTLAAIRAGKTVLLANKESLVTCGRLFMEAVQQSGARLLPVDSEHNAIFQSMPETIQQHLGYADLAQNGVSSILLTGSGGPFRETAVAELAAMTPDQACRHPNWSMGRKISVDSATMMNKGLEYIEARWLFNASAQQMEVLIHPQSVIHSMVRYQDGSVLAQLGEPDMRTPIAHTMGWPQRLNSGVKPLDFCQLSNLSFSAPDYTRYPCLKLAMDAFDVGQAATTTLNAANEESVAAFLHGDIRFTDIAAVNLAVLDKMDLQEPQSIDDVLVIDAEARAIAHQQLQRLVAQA

In the case of `O=CN(O)CCCP(=O)(O)O` [Compound 1a, Fosmidomycin], the IC50 is listed as 20 nM.
